Our source for the EC50 and Kp values is patent US20240108745A1, “BIOACTIVE SUBSTANCE CONJUGATE, PREPARATION METHOD THEREFOR AND USE THEREOF” (MEDILINK THERAPEUTICS (SUZHOU) CO., LTD., priority 2021, published 2024).

The structures appear in SMILES notation. Some results are limits rather than exact numbers.

One series relates to HT29 cells. Nature of the series: Assay I of bioactive molecules on cell viability in vitro (CCK8). It counts as cell-based. The settings on record: Homo sapiens, HT-29, CCK8; read-out: EC50(nM), killing of HT29 cells. The procedure:
(§1) Tumor cells were first cultured; the bioactive molecules of the present disclosure were co-cultured with tumor cells, and then CCK8 reagent (Dojindo Laboratories (Shanghai), Cat: CK04, Lot: JJ744) was added, and the activity of dehydrogenase in mitochondria was detected by reading (detection wavelength 450 nm) on a microplate reader (manufacturer: Molecular Devices, model: SpectraMax M2), to evaluate the inhibitory effect of bioactive molecules on cell proliferation.
(§2) In vitro cell viability assay method: bioactive molecules (12 concentration gradients) were diluted with corresponding assay medium (containing 2% FBS). The tumor cells were digested by conventional methods using trypsin, and cells in tube were collected and counted, then resuspended in the corresponding assay media (containing 2% FBS). The diluted bioactive molecules were added to a 96-well plate, followed by the cells. Then, 20 μL of CCK8 reagent was added to each well, and the reaction was carried out for 4 h, then the plate was read on a microplate reader (detection wavelength was 450 nm). The experimental results are shown in Tables 6.1, 6.2, 6.3, 6.4, and 6.5.

The subject of another series is PANC-1 cells. The description is as above. Format: cell-based. The settings on record: Homo sapiens, read-out: EC50(nM), killing of PANC-1 cells. The procedure:
as §1, §2

For a further series, the system named is HCC1806 cells. Described as above. It counts as cell-based. Particulars: Homo sapiens, HCC1806, 72 h; 7500 cells/well, 3 days; read-out: EC50(nM), killing of HCC1806 cells. As to the method: as §1, §2
In the next series the test system is NCl-H322M cells. The description is as above. Particulars: Homo sapiens, read-out: EC50(nM), killing of NCl-H322M cells. Format: cell-based. The procedure:
as §1, §2

In the next series the test system is NCl-H358 cells. The series is described as above. It counts as cell-based. Particulars: Homo sapiens, read-out: EC50(nM), killing of NCl-H358 cells. As to the method:
as §1, §2

Series [1] is described as follows: Tumor tissue distribution of antibody drug conjugates in HT29 xenografts (A1.9 and ADC in plasma/serum and tumor). It counts as in vivo, BALB/c Nude mice. Particulars: BALB/c Nude, mouse, intravenous, 10 mg/kg, HT29 model, read-out: distribution difference of A1.9 in tumors compared with plasma. As to the method: Human colon cancer HT29 cells were purchased from ATCC. HT29 cells were adherently cultured in a […] culture dish, and the culture conditions were 1640 media containing 10% fetal bovine serum, and the cells were cultured at 37° C. in an incubator containing 5% CO2. When cells were in exponential growth phase, cells were digested with trypsin, harvested, counted, and inoculated.
After adapting to the laboratory environment for 2-5 days, BALB/c Nude mice were subcutaneously inoculated with HT29 cells in the right rib, with an inoculation amount of 5×10^6 cells/mouse and an inoculation volume of 0.2 ml (containing 50% Matrigel). The experiment was carried out when the tumor grew to about 200-300 mm^3.
The tumor tissue pieces were sheared into small size on ice, weighed and transferred to a grinding tube. The tissue homogenate was prepared by grinding them with normal saline solution at 1:5 (w/v); tissue homogenate supernatant was prepared by centrifugation for 10 min at 2˜8° C. and 1800× g, and then stored at −15˜−25° C. for use. Before use, it was taken out and left at 15-25° C., naturally warmed to room temperature, and then used.
For the analysis method of A1.9, refer to Example 6.9. […]

As for `CC[C@@]1(O)C(=O)OCc2c1cc1n(c2=O)Cc2c-1nc1cc3c(cc1c2CCCO)OCO3` [Example A1.9, (S)-7-ethyl-7-hydroxy-14-(3-hydroxypropyl)-10,13-dihydro-11H-[1,3]dioxolo[4,5-g]pyrano[3′,4′:6,7]indolizino[1,2-b]quinolin-8,11(7H)-dione], the 50% effective concentration (EC50) with HT29 cells was determined as 57.5 nM; in the series on PANC-1 cells it was 94.5 nM; in the series on HCC1806 cells, 1.9 nM; in the series on NCl-H322M cells it was 30.4 nM; with NCl-H358 cells it was 60.8 nM. Moreover, in series [1], the Kp is at most 18.

Usually EC50 stands for the midpoint of the concentration-response curve.
